Assay results: patent publication US12304904B2, “Bicyclic [4,6,0] hydroxamic acids as HDAC inhibitors” (Valo Health, Inc., priority 2015, dated 2025)

Each compound was assayed against T1, HDAC6 (Homo sapiens, UniProt Q9UBN7) (assay: In vitro histone deacetylase assay: enzymatic HDAC6 electrophoretic mobility shift assay). Conditions: full length human recombinant HDAC6, 1 nM enzyme, 2 μM peptide substrate RHKK(Ac)-NH2, 25° C.; read-out: Inhibitory Concentration (IC50) against HDAC6, Activity Range.
T1 construct: Full length human recombinant HDAC6 protein were expressed in baculoviral system; made in house
T1 sequence (Q9UBN7 1-1215): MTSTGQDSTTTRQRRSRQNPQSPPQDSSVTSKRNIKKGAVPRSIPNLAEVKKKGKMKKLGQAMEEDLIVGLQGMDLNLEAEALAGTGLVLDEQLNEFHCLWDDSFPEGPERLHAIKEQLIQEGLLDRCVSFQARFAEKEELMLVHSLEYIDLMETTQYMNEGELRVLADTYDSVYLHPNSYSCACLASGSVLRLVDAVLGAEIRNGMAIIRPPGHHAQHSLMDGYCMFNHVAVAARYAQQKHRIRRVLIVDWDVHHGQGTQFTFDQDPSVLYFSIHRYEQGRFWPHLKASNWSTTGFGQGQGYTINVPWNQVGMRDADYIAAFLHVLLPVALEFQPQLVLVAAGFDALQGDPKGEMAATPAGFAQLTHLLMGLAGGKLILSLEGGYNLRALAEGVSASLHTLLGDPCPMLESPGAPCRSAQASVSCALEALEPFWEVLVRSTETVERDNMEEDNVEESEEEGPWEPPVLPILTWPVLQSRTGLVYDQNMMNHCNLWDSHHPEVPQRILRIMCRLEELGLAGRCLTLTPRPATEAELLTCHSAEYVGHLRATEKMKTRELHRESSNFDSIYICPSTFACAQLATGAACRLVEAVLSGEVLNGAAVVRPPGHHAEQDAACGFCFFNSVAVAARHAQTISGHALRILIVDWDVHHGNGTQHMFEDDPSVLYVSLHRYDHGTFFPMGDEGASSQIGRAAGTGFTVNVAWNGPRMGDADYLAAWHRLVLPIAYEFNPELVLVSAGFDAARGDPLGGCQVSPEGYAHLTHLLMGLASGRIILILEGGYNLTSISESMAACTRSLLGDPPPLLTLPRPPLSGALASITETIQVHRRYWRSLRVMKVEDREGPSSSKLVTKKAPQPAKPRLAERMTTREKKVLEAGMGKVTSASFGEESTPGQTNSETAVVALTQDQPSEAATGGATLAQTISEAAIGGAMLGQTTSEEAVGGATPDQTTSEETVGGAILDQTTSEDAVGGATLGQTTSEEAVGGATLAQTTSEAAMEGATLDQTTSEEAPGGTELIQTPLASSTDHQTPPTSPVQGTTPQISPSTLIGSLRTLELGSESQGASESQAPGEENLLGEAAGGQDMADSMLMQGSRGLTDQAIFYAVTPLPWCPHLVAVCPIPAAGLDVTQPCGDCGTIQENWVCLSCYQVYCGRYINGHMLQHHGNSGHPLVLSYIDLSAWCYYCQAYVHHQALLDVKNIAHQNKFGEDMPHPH
Assay type: biochemical
Method: The enzymatic HDAC6 assay was performed using electrophoretic mobility shift assay. Full length human recombinant HDAC6 protein were expressed in baculoviral system and purified by affinity chromatography. The enzymatic reactions were assembled in 384 well plates in a total volume of 25 μL in a reaction buffer composing: 100 mM HEPES, pH7.5, 25 mM KCl, 0.1% bovine serum albumin, 0.01% Triton X-100, 1% DMSO (from compounds) 2 μM of the fluorescently labeled peptide substrate and enzyme. The enzyme was added at a final concentration of 1 nM. The peptide substrate RHKK(Ac)—NH2 was used. The compounds were tested at 12 concentrations spaced by 3× dilution intervals. Negative control samples (0%-inhibition in the absence of inhibitor) and positive control samples (100%-inhibition) were assembled in replicates of four in each assay plate. The reactions were incubated at 25° C. and quenched by the addition of 45 μL of termination buffer (100 mM HEPES, pH 7.5, 0.01% Triton X-100, 0.05% SDS).
The terminated assay plates were analyzed on LabChip® 3000 microfluidic electrophoresis instrument (Perkin Elmer/Caliper Life Sciences). The fluorescence intensity of the electrophoretically separated de-acetylated product and substrate peptide were measured. Activity in each sample was determined as the product to sum ratio (PSR): P/(S+P), where P is the peak height of the product peptide and S is the peak height of the substrate peptide. Percent inhibition (Pinh) was determined using the following equation:
Pinh=(PSR0%−PSRinh)/(PSR0%−PSR100%)*100, where PSRinh is the product sum ratio in the presence of inhibitor, PSR0% is the average product sum ration in the absence of inhibitor and PSR100% is the average product sum ratio in 100%-inhibition control samples. The IC50 values of inhibitors are determined by fitting the %-inhibition curves with 4 parameter dose-response model using XLfit 4 software.

| IC50 | Compound |
| --- | --- |
| > 500 nM | O=C(NO)c1ccc2c(c1)OCCCNC2 [N-hydroxy-3,4,5,6-tetrahydro-2H-benzo[b][1,5]oxazocine-9-carboxamide] |
| ≤ 100 nM | CC1(C(=O)N2CCCOc3cc(C(=O)NO)ccc3C2)CCOCC1 [N-hydroxy-5-(4-methyltetrahydro-2H-pyran-4-carbonyl)-3,4,5,6-tetrahydro-2H-benzo[b][1,5]oxazocine-9-carboxamide] |
| 100 to 500 nM | O=C(NO)c1ccc2c(c1)OCCCN(C(=O)C1CCOCC1)C2 [N-hydroxy-5-(tetrahydro-2H-pyran-4-carbonyl)-3,4,5,6-tetrahydro-2H-benzo[b][1,5]oxazocine-9-carboxamide] |
